Laboratory results from US7211576B2, “Diaminothiazoles” (Hoffmann-La Roche Inc., priority 2004, dated 2007).

Key:
human cyclin D1-CDK4 = human cyclin D1-CDK4 (Homo sapiens, UniProt P11802); test: FlashPlate kinase assay, cyclin D1-CDK4; assay type: biochemical; conditions: Rb protein substrate, 1 μM ATP, 33P-ATP, 30 minutes room temperature; read-out: CDK4 IC50
human cyclin E-CDK2 = human cyclin E-CDK2 (Homo sapiens, UniProt P24941); test: FlashPlate kinase assay, cyclin E-CDK2; assay type: biochemical; conditions: Rb protein substrate, 1 μM ATP, 33P-ATP, 30 minutes room temperature
Protocol: To determine inhibition of Cdk4, Cdk2 and Cdk1 activity, kinase assays were conducted using FlashPlate™ assays (NEN™-Life Science Products). FlashPlate assays were performed using recombinant human cyclin B-CDK1, human cyclin E-CDK2 or human cyclin D1-CDK4 complexes. GST-cyclinE (GST-cycE), CDK2, GST-cyclinB (GST-cycB), CDK1, GST-CDK4 and cyclin D1 (cycD1) cDNA clones in baculovirus vectors were provided by Dr. W. Harper at the Baylor College of Medicine, Houston, Tex. Proteins were co-expressed in High Five™ insect cells and the complex was purified on glutathione Sepharose resin (Pharmacia, Piscataway, N.J.) as previously described (Harper, J. W. et al. Cell 1993, 75, 805–816). A 6×-Histidine tagged truncated form of retinoblastoma (Rb) protein (amino acid 386–928) was used as the substrate for the cycD1-CDK4, cycB-CDK1 and the cycE-CDK2 assays (the expression plasmid was provided by Dr. Veronica Sullivan, Department of Molecular Virology, Roche Research Centre, Welwyn Garden City, United Kingdom). The Rb protein is a natural substrate for phosphorylation by CDK4, CDK2 and CDK1 (see Herwig and Strauss Eur. J. Biochem. Vol. 246 (1997) pp. 581–601 and the references cited therein).
The expression of the 62Kd protein was under the control of an IPTG inducible promoter in an M15 E. coli strain. Cells were lysed by sonication and purification was carried out by binding lysates at pH 8.0 to a Ni-chelated agarose column pretreated with 1 mM imidazole. The resin was then washed several times with incrementally decreasing pH buffers to pH 6.0, and eluted with 500 mM imidazole. Eluted protein was dialysed against 20 mM HEPES pH 7.5, 30% glycerol, 200 mM NaCl, and 1 mM DTT. Purified Rb fusion protein stocks were quantitated for protein concentration, aliquoted, and stored at −70° C.
For all three kinase assays reported herein, 96-well FlashPlates were coated with Rb protein at 10 μg/ml, using 100 μl per well. Plates were incubated at 4° C. overnight or at room temperature for 3 hours on a shaker. To control for nonspecific phosphorylation, one row of wells was coated with 100 μl/well coating buffer (20 mM HEPES, 0.2 M NaCl). Plates were then washed twice with wash buffer (0.01% Tween 20 in phosphate-buffered saline). Compounds to be tested (“test compounds”) were added to the wells at 5× final concentration. Reactions were initiated by immediate addition of 40 μl reaction mix (25 mM HEPES, 20 mM MgCl2, 0.002% Tween 20, 2 mM DTT, 1 μM ATP, 4 nM ^33P-ATP) and a sufficient amount of enzyme to give counts that were at least 10-fold above background. Plates were incubated at room temperature on a shaker for 30 minutes. Plates were washed four times with the wash buffer, sealed, and counted on the TopCount scintillation counter (Packard Instrument Co., Downers Grove, Ill.]. The percent inhibition of Rb phosphorylation, which is a measure of the inhibition of CDK activity, was determined according to the following formula:
[formula] where “test compound” refers to the average counts per minute of the test duplicates, “nonspecific” refers to the average counts per minute when no CyclinD/Cdk4, etc., was added, and “total” refers to the average counts per minute when no compound was added. The IC50 value is the concentration of test compound that reduces by 50% the protein-kinase induced incorporation of the radiolabel under the test conditions described.

human cyclin B-CDK1 = human cyclin B-CDK1 (Homo sapiens, UniProt P06493); test: FlashPlate kinase assay, cyclin B-CDK1; assay type: biochemical; conditions: Rb protein substrate, 1 μM ATP, 33P-ATP, 30 minutes room temperature
Chain of human cyclin B-CDK1 (P06493 whole entry): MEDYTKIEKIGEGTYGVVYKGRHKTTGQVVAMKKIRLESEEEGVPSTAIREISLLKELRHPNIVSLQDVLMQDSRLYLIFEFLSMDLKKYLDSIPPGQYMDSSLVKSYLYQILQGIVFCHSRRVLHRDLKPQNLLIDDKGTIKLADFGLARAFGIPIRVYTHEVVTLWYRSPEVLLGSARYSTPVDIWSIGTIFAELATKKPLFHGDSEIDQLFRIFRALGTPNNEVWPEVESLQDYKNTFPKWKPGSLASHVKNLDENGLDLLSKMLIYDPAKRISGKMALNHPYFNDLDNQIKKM
Chain of human cyclin B-CDK1 (P14635 whole entry partner): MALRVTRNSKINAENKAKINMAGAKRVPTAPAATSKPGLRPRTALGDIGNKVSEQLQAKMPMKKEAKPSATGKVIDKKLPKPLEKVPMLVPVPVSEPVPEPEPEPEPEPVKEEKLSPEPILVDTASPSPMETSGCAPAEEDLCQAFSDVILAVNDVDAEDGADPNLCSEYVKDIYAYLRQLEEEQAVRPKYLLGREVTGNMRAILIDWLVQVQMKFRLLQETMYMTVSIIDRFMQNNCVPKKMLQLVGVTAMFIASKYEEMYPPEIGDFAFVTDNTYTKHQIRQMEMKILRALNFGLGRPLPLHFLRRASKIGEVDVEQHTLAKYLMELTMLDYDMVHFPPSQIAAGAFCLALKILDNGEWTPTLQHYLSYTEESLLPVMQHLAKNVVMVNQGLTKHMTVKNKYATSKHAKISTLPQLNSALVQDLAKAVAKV

[1] = system: HCT116, a colorectal carcinoma cell line; test: Tetrazolium dye (MTT) proliferation assay; assay type: cell-based; conditions: Homo sapiens, HCT-116; HCT116 cells, inhibition of cell proliferation
Protocol: Proliferation was evaluated by the tetrazolium dye assay according to the procedure of Denizot and Lang (Denizot, F. and Lang, R. J Immunol Methods 1986, 89, 271–277). The cell line used was HCT116, a colorectal carcinoma cell line obtained from the American Type Cell Culture Collection (ATCC; Rockville, Md.). The cells were grown in McCoy's 5A medium supplemented with 10% FCS and L-glutamine.
Cells were plated at the appropriate seeding density to give logarithmic growth over the course of the assay in a 96-well tissue culture plate. Plates were incubated overnight at 37° C. in a humidified incubator with 5% CO2. The next day, test compounds were serially diluted to four times the final concentration in the appropriate medium containing 1.2% DMSO. One-fourth final volume of each dilution was added in duplicate to the plates containing cells. The same volume of 1.2% DMSO in medium was added to a row of “control wells” such that the final concentration of DMSO in each well was 0.3%. Wells to which no cells were added served as the “blank.” Wells to which no inhibitor was added served as “no inhibitor control.” The plates were) returned to the incubator, and at set time points (determined by their growth curves) plates were analyzed as described below.
3-(4,5-dimethylthiazole-2-yl)-2,5-diphenyl-2H-tetrazolium bromide (thiazolyl blue; MTT; Sigma) was added to each well to yield a final concentration of 1 mg/ml. Plates were returned to the incubator for 2.5–3 hours at 37° C. The MTT-containing medium was removed and the resulting formazan metabolite was solubilized in 100% ethanol with shaking for 15 minutes at room temperature. Absorbance readings were taken in a microtiter plate reader (Dynatech and Molecular Devices plate readers were used interchangeably) at a wavelength of 570 nm with a 650 nm reference. Percent inhibition (% INH) is calculated by subtracting the absorbance of the blank well from all wells, then subtracting the ratio of the average absorbance of each test duplicate (SAVE) by the average of the controls (CAVE) from 1.00. The final number is then multiplied by 100 (% INH=(1.00−SAVE/CAVE)×100). The concentration at which 50% inhibition of cell proliferation is obtained (the IC50) is determined from the linear regression of a plot of the logarithm of the concentration versus percent inhibition.

Chain of human cyclin D1-CDK4 (P11802 whole entry): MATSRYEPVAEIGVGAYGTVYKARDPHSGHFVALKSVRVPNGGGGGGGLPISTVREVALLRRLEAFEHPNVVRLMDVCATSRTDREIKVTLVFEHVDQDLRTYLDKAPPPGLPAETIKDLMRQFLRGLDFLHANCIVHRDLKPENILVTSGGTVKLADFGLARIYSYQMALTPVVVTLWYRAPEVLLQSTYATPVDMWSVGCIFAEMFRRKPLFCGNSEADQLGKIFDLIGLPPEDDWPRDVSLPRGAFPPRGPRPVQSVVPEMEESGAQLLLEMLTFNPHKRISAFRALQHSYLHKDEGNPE
Chain of human cyclin D1-CDK4 (P24385 whole entry partner): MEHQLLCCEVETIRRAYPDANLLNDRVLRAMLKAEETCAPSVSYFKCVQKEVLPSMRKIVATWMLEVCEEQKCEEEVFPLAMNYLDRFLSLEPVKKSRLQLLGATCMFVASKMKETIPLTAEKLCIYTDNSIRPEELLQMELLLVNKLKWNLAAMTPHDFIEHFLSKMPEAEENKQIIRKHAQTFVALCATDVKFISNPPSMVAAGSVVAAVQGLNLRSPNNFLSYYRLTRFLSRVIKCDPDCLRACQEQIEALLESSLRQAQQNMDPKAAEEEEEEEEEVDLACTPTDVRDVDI

| SMILES | IC50 (human cyclin D1-CDK4) [nM] | IC50 (human cyclin E-CDK2) [nM] | IC50 (human cyclin B-CDK1) [nM] | IC50 [1] [nM] |
| --- | --- | --- | --- | --- |
| COc1ccc(C(=O)c2sc(Nc3ccc(N4CCC(N5CCCCC5)CC4)cc3)nc2N)cc1[N+](=O)[O-] [Example 108, [4-Amino-2-(4-[1,4′]bipiperidinyl-1′-yl-phenylamino)-thiazol-5-yl]-(4-methoxy-3-nitro-phenyl)-methanone] | 34 | 2610 | 1290 | 996 |
| CCNC1CCN(c2ccc(Nc3nc(N)c(C(=O)c4ccc(OC)c(F)c4)s3)cc2)CC1 [Example 136, {4-Amino-2-[4-(4-ethylamino-piperidin-1-yl)-phenylamino]-thiazol-5-yl}-(3-fluoro-4-methoxy-phenyl)-methanone] | 50 | 9430 | 1560 | 3260 |
| Nc1nc(Nc2ccc(N3CCC(N4CCCC4)CC3)cc2)sc1C(=O)c1cccc(C2CC2)c1 [Example 119, {4-Amino-2-[4-(4-pyrrolidin-1-yl-piperidin-1-yl)-phenylamino]-thiazol-5-yl}-(3-cyclopropyl-phenyl)-methanone] | 11 | 3240 | 1530 | 3170 |
| CN(C)C1CCN(c2ccc(Nc3nc(N)c(C(=O)c4cccc(O)c4)s3)cc2)CC1 [Example 50, {4-Amino-2-[4-(4-dimethylamino-piperidin-1-yl)-phenylamino]-thiazol-5-yl}-(3-hydroxy-phenyl)-methanone] | 7 | 2790 | 810 | 3120 |
| Nc1nc(Nc2ccc(N3CCC(N4CCCC(O)C4)CC3)cc2)sc1C(=O)c1cccc(O)c1 (stereo not shown) [Example 81, {4-Amino-2-[4-(3-hydroxy-[1,4′]bipiperidinyl-1′-yl)-phenylamino]-thiazol-5-yl}-(3-hydroxy-phenyl)-methanone] | 19 | 3450 | 1610 | 6020 |
| COc1ccc(C(=O)c2sc(Nc3ccc(N4CCC(N(C)C)CC4)cc3)nc2N)cc1[N+](=O)[O-] [Example 113, {4-Amino-2-[4-(4-dimethylamino-piperidin-1-yl)-phenylamino]-thiazol-5-yl}-(4-methoxy-3-nitro-phenyl)-methanone] | 45 | 7270 | 940 | 1740 |
| Nc1nc(Nc2ccc(N3CCC(N4CCCC(O)C4)CC3)cc2)sc1C(=O)c1cccc(F)c1 (stereo not shown) [Example 35, {4-Amino-2-[4-(3-hydroxy-[1,4′]bipiperidinyl-1′-yl)-phenylamino]-thiazol-5-yl}-(3-fluoro-phenyl)-methanone] | 1090 | 120 | 740 | 18 |
| CN(C)C1CCN(c2ccc(Nc3nc(N)c(C(=O)c4ccc5c(c4)OCCO5)s3)cc2)CC1 [Example 44, {4-Amino-2-[4-(4-dimethylamino-piperidin-1-yl)-phenylamino]-thiazol-5-yl}-(2,3-dihydro-benzo[1,4]dioxin-6-yl)-methanone] | 16 | 5130 | 1250 | 1720 |
| Nc1nc(Nc2ccc(N3CCC(N4CCCCC4)CC3)cc2)sc1C(=O)c1cccc(F)c1 [Example 30, [4-Amino-2-(4-[1,4′]bipiperidinyl-1′-yl-phenylamino)-thiazol-5-yl]-(3-fluoro-phenyl)-methanone] | 14 | 545 | 176 | 840 |
| Nc1nc(Nc2ccc(N3CCC(N4CCCC(O)C4)CC3)cc2)sc1C(=O)c1ccc(O)cc1 (stereo not shown) [Example 40, {4-Amino-2-[4-(3-hydroxy-[1,4′]bipiperidinyl-1′-yl)-phenylamino]-thiazol-5-yl}-(4-hydroxy-phenyl)-methanone] | 52 | 5110 | 640 | 9480 |
| CCCc1cc(C(=O)c2sc(Nc3ccc(N4CCC(N5CCCC5)CC4)cc3)nc2N)ccc1O [Example 123, {4-Amino-2-[4-(4-pyrrolidin-1-yl-piperidin-1-yl)-phenylamino]-thiazol-5-yl}-(4-hydroxy-3-propyl-phenyl)-methanone] | 14 | 200 | 345 | 1050 |
| CN(C)C1CCN(c2ccc(Nc3nc(N)c(C(=O)c4cccc([N+](=O)[O-])c4)s3)cc2)CC1 [Example 92, {4-Amino-2-[4-(4-dimethylamino-piperidin-1-yl)-phenylamino]-thiazol-5-yl}-(3-nitro-phenyl)-methanone] | 15 | 1600 | 870 | 2900 |
| Nc1nc(Nc2ccc(N3CCC(N4CCCCC4)CC3)cc2)sc1C(=O)c1ccc2c(c1)OCO2 [Example 32, [4-Amino-2-(4-[1,4′]bipiperidinyl-1′-yl-phenylamino)-thiazol-5-yl]-benzo[1,3]dioxol-5-yl-methanone] | 29 | 5740 | 1910 | 6640 |
| N#Cc1cccc(C(=O)c2sc(Nc3ccc(N4CCC(N5CCCC(O)C5)CC4)cc3)nc2N)c1 (stereo not shown) [Example 80, 3-{4-Amino-2-[4-(3-hydroxy-[1,4′]bipiperidinyl-1′-yl)-phenylamino]-thiazole-5-carbonyl}-benzonitrile] | 17 | 2580 | 1370 | 3490 |
| CN(C)C1CCN(c2ccc(Nc3nc(N)c(C(=O)c4cccc(C5CC5)c4)s3)cc2)CC1 [Example 120, {4-Amino-2-[4-(4-dimethylamino-piperidin-1-yl)-phenylamino]-thiazol-5-yl}-(3-cyclopropyl-phenyl)-methanone] | 23 | 2580 | 1870 | 3910 |
| COc1cccc(C(=O)c2sc(Nc3ccc(N4CCC(N5CCCCC5)CC4)cc3)nc2N)c1 [Example 34, [4-Amino-2-(4-[1,4′]bipiperidinyl-1′-yl-phenylamino)-thiazol-5-yl]-(3-methoxy-phenyl)-methanone] | 3640 | 952 | 1680 | 8 |
